Source: patent US20100204167A1, “ACTIVE COMPOUND COMBINATIONS HAVING INSECTICIDAL AND ACARICIDAL PROPERTIES” (priority 2006, published 2010)

How the values were obtained:
[1] = tested on: Phaedon cochleariae larvae; experiment: Phaedon cochleariae larvae test (Example D, spray); format: in vivo; conditions: single active compound
[2] = tested on: Phaedon cochleariae larvae; experiment: Phaedon cochleariae larvae test (Example G); conditions: 0.8 ppm, single active compound
[3] = tested on: Myzus persicae; experiment: Myzus persicae test (cabbage leaves dipped); format: in vivo; conditions: single active compound
[4] = tested on: Aphis gossypii; experiment: Aphis gossypii test (cotton leaves dipped); format: in vivo; conditions: single active compound
[5] = tested on: Myzus persicae; experiment: Myzus persicae test (cabbage leaves sprayed); format: in vivo; conditions: single active compound
[6] = tested on: Tetranychus urticae; experiment: Tetranychus test (OP-resistant/spray treatment); format: in vivo; conditions: single active compound
Description: Disks of bean leaves (Phaseolus vulgaris) which are infested by all stages of the greenhouse red spider mite (Tetranychus urticae) are sprayed with an active compound preparation of the desired concentration.
After the desired period of time, the activity in % is determined.

[7] = tested on: Spodoptera frugiperda larvae; experiment: Spodoptera frugiperda larvae test (spray); format: in vivo; conditions: single active compound

CCOCn1c(-c2ccc(Cl)cc2)c(C#N)c(Br)c1C(F)(F)F [chlorfenapyr]
Kill in % after 2d ([1]; 4 g/ha): 0%

CO[C@H]1CC[C@]2(CC1)NC(=O)C(c1cc(C)ccc1C)=C2O [compound (I-1)]
Kill in % after 6d [2]: 0% | Kill in % after 6d ([3]; 4 ppm): 5% | Kill in % after 6d ([4]; 100 ppm): 70%

COC1CCC2(CC1)NC(=O)C(c1cc(C)ccc1C)=C2O (centres unmarked) [compound (I-1-a)]
Kill in % after 6d [2]: 0% | Kill in % after 6d ([3]; 4 ppm): 20% | Kill in % after 6d ([4]; 100 ppm): 50%

CCOC(=O)OC1=C(c2cc(C)ccc2C)C(=O)N[C@]12CC[C@@H](OC)CC2 [compound (I-2)]
Kill in % after 6d ([5]; 0.8 g/ha): 50% | Kill in % after 1d ([5]; 20 g/ha): 0% | Kill in % after 6d ([1]; 4 g/ha): 0% | Kill in % after 2d ([1]; 20 g/ha): 0% | Kill in % after 6d ([1]; 20 g/ha): 0% | Kill in % after 6d ([3]; 0.8 ppm): 10% | Kill in % after 2d ([6]; 0.8 g/ha): 20% | Kill in % after 2d ([6]; 20 g/ha): 10% | Kill in % after 6d ([4]; 0.8 ppm): 0% | Kill in % after 2d ([7]; 20 g/ha): 17% | Kill in % after 2d ([7]; 100 g/ha): 83%

CCOC(=O)OC1=C(c2cc(C)ccc2C)C(=O)NC12CCC(OC)CC2 (centres unmarked) [compound (I-2-a)]
Kill in % after 6d ([5]; 0.8 g/ha): 50% | Kill in % after 1d ([5]; 20 g/ha): 0% | Kill in % after 6d ([1]; 4 g/ha): 0% | Kill in % after 2d ([1]; 20 g/ha): 0% | Kill in % after 6d ([1]; 20 g/ha): 0% | Kill in % after 6d ([3]; 0.8 ppm): 0% | Kill in % after 2d ([6]; 0.8 g/ha): 0% | Kill in % after 2d ([6]; 20 g/ha): 0% | Kill in % after 6d ([4]; 0.8 ppm): 0% | Kill in % after 2d ([7]; 20 g/ha): 17% | Kill in % after 2d ([7]; 100 g/ha): 83%

CC(C)c1cc(Oc2ccccc2)cc(C(C)C)c1NC(=S)NC(C)(C)C [diafenthiuron]
Kill in % after 6d ([5]; 4 g/ha): 60% | Kill in % after 2d ([7]; 100 g/ha): 50%

Cc1nn(C)c(Oc2ccccc2)c1C=NOCc1ccc(C(=O)OC(C)(C)C)cc1 [fenpyroximate]
Kill in % after 1d ([5]; 20 g/ha): 20% | Kill in % after 6d ([1]; 20 g/ha): 33% | Kill in % after 2d ([7]; 100 g/ha): 50%

CC(C)(C)c1ccc(CSc2cnn(C(C)(C)C)c(=O)c2Cl)cc1 [pyridaben]
Kill in % after 6d ([1]; 4 g/ha): 33% | Kill in % after 2d ([6]; 0.8 g/ha): 0%

CCc1nn(C)c(C(=O)NCc2ccc(C(C)(C)C)cc2)c1Cl [tebufenpyrad]
Kill in % after 6d ([1]; 4 g/ha): 0%

abamectin
Kill in % after 6d ([3]; 0.8 ppm): 10% | Kill in % after 6d ([3]; 4 ppm): 65% | Kill in % after 6d ([4]; 0.8 ppm): 45%

milbemectin
Kill in % after 1d ([5]; 0.8 g/ha): 0%

spinosad
Kill in % after 6d [2]: 20% | Kill in % after 2d ([6]; 4 g/ha): 10% | Kill in % after 6d ([4]; 100 ppm): 20%
